Consider one molecule from ChEMBL document CHEMBL5360558, “Molecular design, synthesis and anticancer activity of new thiopyrano[2,3-d]thiazoles based on 5-hydroxy-1,4-naphthoquinone (juglone)” (Eur J Med Chem, 2023).

The TGI is the concentration giving total growth inhibition. A word on the GI50: it is the concentration giving 50% growth inhibition. A lower GI50 goes with more potent growth inhibition. Broadly, the IC50 is the point on the concentration scale where inhibition reaches its midpoint.

The source made the active and inactive calls. The calls are words filed in the database; no cut-off is given here.

One series has as its system Jurkat. The series is described as follows: Induction of apoptosis in human Jurkat cells assessed as necrotic cells at 25 uM by DNA laddering assay. Type of series: functional, cell-based.
The subject of another series is KB 3-1. The series is described as follows: Induction of apoptosis in human KB 3-1 cells assessed as increase in BIP protein expression at 0.5 to 5 uM incubated for 3 hrs by Western blotting assay. Type of series: functional, cell-based. The note with it: dose 0.5-5 µM.
The next series relates to LOX IMVI. Put plainly: Growth inhibition against human LOX IMVI cells assessed as total growth inhibitory concentration incubated for 48 hrs by sulforhodamine B spectrophotometric assay. Type of series: functional. A general note: The SRB assay estimates cell density from bound dye.
Series [1] has as its system CCRF-CEM. Put plainly: Induction of cell cycle arrest in human CCRF-CEM cells assessed as accumulation of cells at G0/G1 phase at 4.14 uM incubated for 24 hrs by propidium iodide staining based flow cytometry analysis (reference value: 38.68 +/- 0.75%). Type of series: functional. (In general: In flow cytometry, cells or beads pass a laser one at a time.)
The subject of a further series is HOP-92. The series is described as follows: Growth inhibition of human HOP-92 cells incubated for 48 hrs by sulforhodamine B spectrophotometric assay. The class given is functional.
Another series concerns SK-MEL-5. Put plainly: Growth inhibition of human SK-MEL-5 cells incubated for 48 hrs by sulforhodamine B spectrophotometric assay. Type of series: functional.
The next series concerns COLO 205. The series is described as follows: Growth inhibition against human COLO 205 cells assessed as total growth inhibitory concentration incubated for 48 hrs by sulforhodamine B spectrophotometric assay. The class given is functional.
The test system of another series is DU-145. Put plainly: Anticancer activity against human DU-145 cells assessed as cell growth at 10 uM incubated for 48 hrs by sulforhodamine B assay. The class given is functional. The following applies: read-out: Activity.
In another series the test system is HOP-62. Put plainly: Growth inhibition against human HOP-62 cells assessed as lethal concentration incubated for 48 hrs by sulforhodamine B spectrophotometric assay. Type of series: functional. The following applies: read-out: LC50 (the source's name).
Series [2] concerns CCRF-CEM. Put plainly: Induction of cell cycle arrest in human CCRF-CEM cells assessed as accumulation of cells at sub-G1 phase at 20.7 uM incubated for 24 hrs by propidium iodide staining based flow cytometry analysis (reference value: 2.36 +/- 0.049%). Type of series: functional.
The subject of series [3] is CCRF-CEM. The series is described as follows: Induction of cell cycle arrest in human CCRF-CEM cells assessed as accumulation of cells at M phase at 20.7 uM incubated for 24 hrs by propidium iodide staining based flow cytometry analysis (reference value: 1.97 +/- 0.042%). Type of series: functional.
For the next series, the system named is EKVX. The series is described as follows: Growth inhibition of human EKVX cells incubated for 48 hrs by sulforhodamine B spectrophotometric assay. Type of series: functional.
Another series concerns T47D. Put plainly: Growth inhibition against human T47D cells assessed as lethal concentration incubated for 48 hrs by sulforhodamine B spectrophotometric assay. The class given is functional. The following applies: read-out: LC50 (the source's name).
Series [4] deals with CCRF-CEM. The series is described as follows: Induction of cell cycle arrest in human CCRF-CEM cells assessed as RNA synthesis at 20.7 uM incubated for 3 hrs by […] incorporation based flow cytometry analysis (reference value: 31.8 +/- 1.17%). The class given is functional. In general terms: Uptake of a labelled nucleoside into DNA is a usual measure of proliferation.
In a further series the test system is MDA-MB-468. Put plainly: Growth inhibition against human MDA-MB-468 cells assessed as lethal concentration incubated for 48 hrs by sulforhodamine B spectrophotometric assay. The class given is functional. The following applies: read-out: LC50 (the source's name).
Series [5] is described as follows: Acute toxicity in C57BL/6 mouse assessed as change in red blood cells at 20 mg/kg,ip administration observed after 22 days. The class given is organism-based. The following applies: in vivo, 528 h, time 22 day.
In the next series the test system is TK-10. The series is described as follows: Growth inhibition against human TK-10 cells assessed as total growth inhibitory concentration incubated for 48 hrs by sulforhodamine B spectrophotometric assay. Type of series: functional.
In the next series the test system is NCI/ADR-RES. The series is described as follows: Growth inhibition against human NCI/ADR-RES cells assessed as lethal concentration incubated for 48 hrs by sulforhodamine B spectrophotometric assay. The class given is functional. The following applies: read-out: LC50 (the source's name).
The test system of another series is A549. The series is described as follows: Growth inhibition of human A549 cells incubated for 48 hrs by sulforhodamine B spectrophotometric assay. Type of series: functional.
In another series the test system is Salmon testes DNA. The series is described as follows: Displacement of methyl green from salmon sperm DNA assessed as DNA intercalation at 10 uM incubated for 24 hrs by fluorescence plate reader method relative to control. The class given is nucleic-acid assay. The following applies: Salmo salar.
The test system of another series is IGROV-1. The series is described as follows: Growth inhibition against human IGROV-1 cells assessed as total growth inhibitory concentration incubated for 48 hrs by sulforhodamine B spectrophotometric assay. Type of series: functional.
Series [6] is described as follows: Antileukemic activity against human CLL cell assessed as cell growth inhibition incubated for 72 hrs in presence of BST by MTT assay. Type of series: functional, cell-based.
The next series deals with RXF 393. The series is described as follows: Growth inhibition against human RXF 393 cells assessed as total growth inhibitory concentration incubated for 48 hrs by sulforhodamine B spectrophotometric assay. Type of series: functional.

For the molecule `O=C1C2=C(C(=O)c3c(O)cccc31)C(c1ccco1)c1sc(=O)[nH]c1S2` (stereo not drawn), the result in the series with Jurkat was Active. For the same molecule, the result in the series with KB 3-1 was inactive. Further, the TGI in the series with LOX IMVI came out at 7.55 µM; with COLO 205, 3.61 µM; with TK-10, 26.4 µM; in the series with IGROV-1, 6.14 µM; with RXF 393, 5.57 µM. For the same molecule, the Activity was 34.34% with CCRF-CEM [1]; 5.8% with CCRF-CEM [2]; 1.7% with CCRF-CEM [3]; 0.07% with CCRF-CEM [4]; “Non-Toxic” in series [5]; 44.3% in the series with Salmon testes DNA. In addition, the GI50 came out at 3.15 µM in the series with HOP-92, 1.59 µM with SK-MEL-5, 6.75 µM in the series with EKVX and 1.78 µM with A549. Further, in the series with DU-145, the growth at 10 µM is -93.9%. The CC50 in the series with HOP-62 was 6.86 µM; in the series with T47D it was above 100 µM; with MDA-MB-468 it was above 100 µM; with NCI/ADR-RES it was above 100 µM. The IC50 in series [6] amounted to 8.24 µM.
